SMILES strings stand for the structures.

Chain of human Kv1.3 (P22001 whole entry): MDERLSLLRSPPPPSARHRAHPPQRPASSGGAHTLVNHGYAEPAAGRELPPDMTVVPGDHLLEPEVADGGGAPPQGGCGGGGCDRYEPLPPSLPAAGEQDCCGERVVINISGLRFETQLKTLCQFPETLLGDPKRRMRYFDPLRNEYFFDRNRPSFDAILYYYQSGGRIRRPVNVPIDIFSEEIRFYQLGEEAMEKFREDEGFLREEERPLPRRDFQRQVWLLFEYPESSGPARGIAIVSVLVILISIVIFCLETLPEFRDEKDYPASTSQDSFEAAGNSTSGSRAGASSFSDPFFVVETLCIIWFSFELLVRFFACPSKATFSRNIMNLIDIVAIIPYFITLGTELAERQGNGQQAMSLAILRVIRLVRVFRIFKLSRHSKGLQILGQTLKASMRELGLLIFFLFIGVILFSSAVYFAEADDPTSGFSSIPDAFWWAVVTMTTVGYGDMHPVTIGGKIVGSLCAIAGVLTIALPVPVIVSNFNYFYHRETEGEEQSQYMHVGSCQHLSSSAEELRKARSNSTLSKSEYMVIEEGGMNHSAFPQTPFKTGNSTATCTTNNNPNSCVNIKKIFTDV

This assay addresses human Kv1.3 (Homo sapiens (Human), UniProt P22001). The experiment in a line: Kv1.3 potency evaluation, automated patch clamp electrophysiology (QPatch HT) in CHO-Kv1.3 cells. Format: cell-based. As to conditions: whole-cell QPatch HT, % inhibition of charge, step to +30 mV, four concentrations, N≥3 cells, read-out: hKv1.3 IC50. The procedure, abridged:
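Automated whole-cell patch clamp in CHO cells stably expressing human Kv1.3; steps from −80 to +30 mV (500 ms) at 0.067 Hz. Four cumulative concentrations after vehicle (0.1-0.3% DMSO); charge inhibition vs vehicle fitted by four-parameter logistic for IC50, N≥3 cells.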
For `CC1(F)CCN(C(=O)[C@@H]2NC(C34CC(N(Cc5ccc(Cl)c(F)c5)S(=O)(=O)c5ccccc5)(C3)C4)=NC2(C)C)C1` (mixture of isomers) [Example 127], the IC50 – broadly, the concentration at which inhibition is half-maximal – was found to be 77 nM.

Regarding `CC1(C)N=C(C23CC(N(Cc4ccc(Cl)c(Cl)c4)S(=O)(=O)CCCF)(C2)C3)N[C@H]1C(=O)NCCC(F)(F)F` (mixture of isomers) [Example 128], the IC50 was determined as 77 nM.

As for `CC1(C)N=C(C23CC(N(Cc4ccc(Cl)c(F)c4)S(=O)(=O)c4ccccc4)(C2)C3)N[C@H]1C(=O)N1CCC2(C1)CC2(F)F` (mixture of isomers) [Example 129], the IC50 stood at 78 nM.

As for `CCCS(=O)(=O)N(Cc1ccc(Cl)c(Cl)c1)C12CC(C3=NC(C)(C)[C@H](C(=O)N4CCC(C(F)(F)F)CC4)N3)(C1)C2` (mixture of isomers) [Example 130], the IC50 came out at 78 nM.

In the case of `CC1(C)N=C(C23CC(N(Cc4ccc(Cl)c(F)c4)S(=O)(=O)c4ccccc4)(C2)C3)N[C@H]1C(=O)N1CCCC(F)(F)CC1` (mixture of isomers) [Example 131], the IC50 was 78 nM.

For `CC1(C)N=C(C23CC(N(Cc4ccc(Cl)c(Cl)c4)S(=O)(=O)CCCF)(C2)C3)N[C@H]1C(=O)NCC1CC(F)(F)C1` (mixture of isomers) [Example 132], the 50% inhibitory concentration (IC50) was 78 nM.

`CN(CC1CC(F)(F)C1)C(=O)[C@@H]1NC(C23CC(N(Cc4ccc(Cl)c(F)c4)S(=O)(=O)c4ccccc4)(C2)C3)=NC1(C)C` (mixture of isomers) [Example 133]: the IC50 is 78 nM.

As to `CC1(C)N=C(C23CC(N(Cc4ccc(Cl)c(Cl)c4)S(=O)(=O)c4ccccc4)(C2)C3)N[C@H]1C(=O)N1CCC12CC(F)(F)C2` (mixture of isomers) [Example 134], the IC50 is 79 nM.

For the molecule `CC1(C)N=C(C23CC(N(Cc4ccc(Cl)c(F)c4)S(=O)(=O)c4ccccc4)(C2)C3)N[C@@H]1C(=O)NCC1CC(F)(F)C1` (mixture of isomers) [Example 135], the IC50 turned out to be 81 nM.

For the molecule `CCCS(=O)(=O)N(Cc1ccc(Cl)c(Cl)c1)C12CC(C3=NC(C)(C)[C@H](C(=O)NCCC(F)(F)F)N3)(C1)C2` (mixture of isomers) [Example 136], the IC50 was found to be 82 nM.

For `CC1(C)N=C(C23CC(N(Cc4ccc(Cl)cc4)S(=O)(=O)CCC(F)F)(C2)C3)N[C@H]1C(=O)NCCC(F)(F)F` (mixture of isomers) [Example 137], the IC50 turned out to be 82 nM.

Regarding `CC1(C)N=C(C23CC(N(Cc4ccc(C(F)(F)F)cc4)S(=O)(=O)c4ccccc4)(C2)C3)N[C@H]1C(=O)NCCC(F)(F)F` (mixture of isomers) [Example 138], the IC50 came to 84 nM.

As for `CC(C)(C)CS(=O)(=O)N(Cc1ccc(Cl)cc1)C12CC(C3=NC(C)(C)[C@H](C(=O)NCCC(F)(F)F)N3)(C1)C2` (mixture of isomers) [Example 139], the IC50 is 84 nM.

`CC1(C)N=C(C23CC(N(Cc4ccc(Cl)c(F)c4)S(=O)(=O)c4ccccc4)(C2)C3)N[C@H]1C(=O)NCC(F)(F)F` (mixture of isomers) [Example 140]: the IC50 came to 84 nM.

Turning to `CC(C)(CC(F)(F)F)NC(=O)[C@@H]1NC(C23CC(N(Cc4ccc(Cl)c(F)c4)S(=O)(=O)c4ccccc4)(C2)C3)=NC1(C)C` (mixture of isomers) [Example 141], the IC50 amounted to 84 nM.

Consider `CC1(C)N=C(C23CC(N(Cc4ccc(Cl)c(Cl)c4)S(=O)(=O)CCCF)(C2)C3)N[C@H]1C(=O)NCC(F)(F)C(F)(F)F` (mixture of isomers) [Example 142], for which the IC50 came to 84 nM.

For `CCCS(=O)(=O)N(Cc1ccc(Cl)c(Cl)c1)C12CC(C3=NC(C)(C)[C@H](C(=O)NCC4(C(F)(F)F)CC4)N3)(C1)C2` (mixture of isomers) [Example 143], the IC50 turned out to be 85 nM.

As to `CC1(C)N=C(C23CC(N(Cc4ccc(Cl)c(F)c4)S(=O)(=O)c4ccccc4)(C2)C3)N[C@H]1C(=O)N1CCC2(C1)CC(F)(F)C2` (mixture of isomers) [Example 144], the half-inhibitory concentration (IC50) amounted to 87 nM.

With `CC1(C)N=C(C23CC(N(Cc4ccc(Cl)c(F)c4)S(=O)(=O)c4ccccc4)(C2)C3)N[C@@H]1C(=O)NCCC(F)(F)F` (mixture of isomers) [Example 146], the IC50 was 88 nM.

For `CN(CCC(F)(F)F)C(=O)[C@@H]1NC(C23CC(N(Cc4ccc(Cl)c(Cl)c4)S(=O)(=O)c4ccccc4)(C2)C3)=NC1(C)C` (mixture of isomers) [Example 147], the IC50 turned out to be 88 nM.

For `CC1(C)N=C(C23CC(N(Cc4ccc(Cl)c(F)c4)S(=O)(=O)c4ccccc4)(C2)C3)N[C@H]1C(=O)NCCC1(C(F)(F)F)CC1` (mixture of isomers) [Example 149], the IC50 is 89 nM.

As to `CC(F)(F)CCS(=O)(=O)N(Cc1ccc(Cl)c(Cl)c1)C12CC(C3=NC(C)(C)[C@H](C(=O)NCCC(F)(F)F)N3)(C1)C2` (mixture of isomers) [Example 150], the IC50 was 90 nM.

For `CN(C(=O)[C@@H]1NC(C23CC(N(Cc4ccc(Cl)c(F)c4)S(=O)(=O)c4ccccc4)(C2)C3)=NC1(C)C)C1CC(F)(F)C1` (mixture of isomers) [Example 151], the concentration for half-maximal inhibition (IC50) stood at 90 nM.

For the molecule `CC1(C)N=C(C23CC(N(Cc4ccc(Cl)cc4)S(=O)(=O)c4cccc(C(F)(F)F)c4)(C2)C3)N[C@H]1C(=O)NCCC(F)(F)F` (mixture of isomers) [Example 152], the IC50 is 91 nM.

Consider `CN(C(=O)[C@@H]1NC(C23CC(N(Cc4ccc(Cl)c(Cl)c4)S(=O)(=O)c4ccccc4)(C2)C3)=NC1(C)C)C1CC(C(F)F)C1` (mixture of isomers) [Example 153], for which the IC50 was found to be 91 nM.

On to `CC1(C)N=C(C23CC(N(Cc4ccc(Cl)cc4)S(=O)(=O)c4ccccc4)(C2)C3)N[C@H]1C(=O)NCc1c(F)cc(F)cc1F` (mixture of isomers) [Example 154], for which the IC50 amounted to 91 nM.

Regarding `CC1(C)N=C(C23CC(N(Cc4cc(F)c(Cl)c(F)c4)S(=O)(=O)c4ccccc4)(C2)C3)N[C@H]1C(=O)NCCC(F)(F)F` (mixture of isomers) [Example 155], the IC50 amounted to 92 nM.

On to `CC(F)(F)CCS(=O)(=O)N(Cc1ccc(Cl)c(Cl)c1)C12CC(C3=NC(C)(C)[C@H](C(=O)NCC(F)(F)C(F)(F)F)N3)(C1)C2` (mixture of isomers) [Example 156], for which the IC50 is 92 nM.

For the molecule `CC(F)(F)CCS(=O)(=O)N(Cc1ccc(Cl)c(Cl)c1)C12CC(C3=NC(C)(C)[C@H](C(=O)NCC4CC(F)(F)C4)N3)(C1)C2` (mixture of isomers) [Example 158], the IC50 stood at 95 nM.

As for `CC(C)(F)CNC(=O)[C@@H]1NC(C23CC(N(Cc4ccc(Cl)c(Cl)c4)S(=O)(=O)CCC(C)(F)F)(C2)C3)=NC1(C)C` (mixture of isomers) [Example 159], the IC50 turned out to be 95 nM.

For the molecule `CC1(C)N=C(C23CC(N(Cc4ccc(Cl)c(Cl)c4)S(=O)(=O)c4ccccc4)(C2)C3)N[C@H]1C(=O)NC1CC1C(F)(F)F` (mixture of isomers) [Example 160], the IC50 is 97 nM.

As to `CC1(C)N=C(C23CC(N(Cc4ccc(Cl)c(F)c4)S(=O)(=O)c4ccccc4)(C2)C3)N[C@H]1C(=O)NCC1(C(F)(F)F)CCC1` (mixture of isomers) [Example 162], the IC50 turned out to be 98 nM.

Regarding `CC1(C)N=C(C23CC(N(Cc4ccc(Cl)c(F)c4)S(=O)(=O)c4ccccc4)(C2)C3)N[C@H]1C(=O)NCC(C)(C)C(F)(F)F` (mixture of isomers) [Example 163], the IC50 was 98 nM.

These data come from patent US12128028B2, “Heterocyclic sulfonamide derivatives and pharmaceutical uses thereof” (METRION BIOSCIENCES LIMITED, priority 2018, dated 2024).
